Assay results reported in patent US10344049B2, “Substituted steroids for the treatment of cancer” (AQUAVAN TECHNOLOGY CO., LTD., priority 2017, dated 2019).
Read-outs that look alike come from different tables or passages of the source.

Tests used:
Format in all cases: cell-based
[1] = system: human colorectal cancer cells SW-480; assay: Cell viability test (Resazurin), SW480 cells; set-up: evaluation of ability to inhibit cell growth activity (IC50): scale not given here
Protocol: (§1) Cell viability was determined with Resazurin (at a final concentration of 25 μg/mL).

[2] = system: human leukemia cells U937; assay: Cell viability test (Resazurin), U937 cells
Protocol: as §1

[3] = system: human lung cancer cells A549; assay: Cell viability test (Resazurin), A549 cells; set-up: evaluation of ability to inhibit cell growth activity (IC50): scale not given here
Protocol: as §1

[4] = system: human liver cancer cells Mahlavu; assay: Cell viability test (Resazurin), Mahlavu cells
Protocol: as §1

[5] = system: human Glioblastoma cells U87-MG; assay: Cell viability test (Resazurin), U87-MG cells; set-up: evaluation of ability to inhibit cell growth activity (IC50): scale not given here; conditions: for evaluation of ability to inhibit cell growth activity (IC50): grade of the IC50 of Table 2
Protocol: as §1

[6] = system: human breast cancer cells MDA-MB-231; assay: Cell viability test (Resazurin), MDA-MB-231 cells; set-up: evaluation of ability to inhibit cell growth activity (IC50): scale not given here
Protocol: as §1

[7] = system: African green monkey kidney cells Vero; assay: Cell viability test (Resazurin), Vero cells
Protocol: as §1

[8] = system: human breast cancer cells MDA-MB-468; assay: Cell viability test (Resazurin), MDA-MB-468 cells
Protocol: as §1

[9] = SW480 cells, 48 hours, 0.1% FCS, Resazurin, read-out: inhibitory concentrations of cell growth activity IC50
[10] = U937 cells, 48 hours, 0.1% FCS, Resazurin, read-out: inhibitory concentrations of cell growth activity IC50
[11] = U937 cells, grade of the IC50 of Table 2, read-out: evaluation of ability to inhibit cell growth activity (IC50)
[12] = A549 cells, 48 hours, 0.1% FCS, Resazurin, read-out: inhibitory concentrations of cell growth activity IC50
[13] = A549 cells, grade of the IC50 of Table 2, read-out: evaluation of ability to inhibit cell growth activity (IC50)
[14] = 48 hours, 0.1% FCS, Resazurin, read-out: inhibitory concentrations of cell growth activity IC50
[15] = grade of the IC50 of Table 2, read-out: evaluation of ability to inhibit cell growth activity (IC50)
[16] = MDA-MB-231 cells, 48 hours, 0.1% FCS, Resazurin, read-out: inhibitory concentrations of cell growth activity IC50
[17] = MDA-MB-231 cells, grade of the IC50 of Table 2, read-out: evaluation of ability to inhibit cell growth activity (IC50)
[18] = MDA-MB-468 cells, 48 hours, 0.1% FCS, Resazurin, read-out: inhibitory concentrations of cell growth activity IC50
[19] = Homo sapiens, SW480, 48 h, SW480 cells, 48 hours, 0.1% FCS, Resazurin, read-out: inhibitory concentrations of cell growth activity IC50
[20] = Homo sapiens, SW480, SW480 cells, grade of the IC50 of Table 2, read-out: evaluation of ability to inhibit cell growth activity (IC50)
[21] = Homo sapiens, U-937, 48 h, U937 cells, 48 hours, 0.1% FCS, Resazurin, read-out: inhibitory concentrations of cell growth activity IC50
[22] = Homo sapiens, U-937, U937 cells, grade of the IC50 of Table 2, read-out: evaluation of ability to inhibit cell growth activity (IC50)
[23] = Homo sapiens, A549, 48 h, A549 cells, 48 hours, 0.1% FCS, Resazurin, read-out: inhibitory concentrations of cell growth activity IC50
[24] = Homo sapiens, A549, A549 cells, grade of the IC50 of Table 2, read-out: evaluation of ability to inhibit cell growth activity (IC50)
[25] = Homo sapiens, Mahlavu, 48 h, 0.1% FCS, Resazurin, read-out: inhibitory concentrations of cell growth activity IC50
[26] = Homo sapiens, Mahlavu, grade of the IC50 of Table 2, read-out: evaluation of ability to inhibit cell growth activity (IC50)
[27] = Homo sapiens, U-87 MG, 48 h, 0.1% FCS, Resazurin, read-out: inhibitory concentrations of cell growth activity IC50
[28] = Homo sapiens, U-87 MG, grade of the IC50 of Table 2, read-out: evaluation of ability to inhibit cell growth activity (IC50)
[29] = Homo sapiens, MDA-MB-231, 48 h, MDA-MB-231 cells, 48 hours, 0.1% FCS, Resazurin, read-out: inhibitory concentrations of cell growth activity IC50
[30] = Homo sapiens, MDA-MB-231, MDA-MB-231 cells, grade of the IC50 of Table 2, read-out: evaluation of ability to inhibit cell growth activity (IC50)
[31] = Chlorocebus sabaeus, Vero, 48 h, 0.1% FCS, Resazurin, read-out: inhibitory concentrations of cell growth activity IC50
[32] = Chlorocebus sabaeus, Vero, grade of the IC50 of Table 2, read-out: evaluation of ability to inhibit cell growth activity (IC50)
[33] = Homo sapiens, MDA-MB-468, 48 h, MDA-MB-468 cells, 48 hours, 0.1% FCS, Resazurin, read-out: inhibitory concentrations of cell growth activity IC50
[34] = Homo sapiens, MDA-MB-468, MDA-MB-468 cells, grade of the IC50 of Table 2, read-out: evaluation of ability to inhibit cell growth activity (IC50)
[35] = SW480 cells, grade of the IC50 of Table 2, read-out: evaluation of ability to inhibit cell growth activity (IC50)
[36] = MDA-MB-468 cells, grade of the IC50 of Table 2, read-out: evaluation of ability to inhibit cell growth activity (IC50)

Row | SMILES | IC50 [1, 9] | IC50 [2, 10] | IC50 [2, 11] | IC50 [3, 12] | IC50 [3, 13] | IC50 [4, 14] | IC50 [5, 14] | IC50 [5, 15] | IC50 [6, 16] | IC50 [6, 17] | IC50 [7, 14] | IC50 [7, 15] | IC50 [8, 18] | IC50 [1, 19] | IC50 [1, 20] | IC50 [2, 21] | IC50 [2, 22] | IC50 [3, 23] | IC50 [3, 24] | IC50 [4, 25] | further results
1 | CC(=O)O[C@H]1C=C2[C@@H](CC[C@H](O)C2(C)C)[C@]2(C=O)CC[C@]3(C)[C@@H]([C@H](C)C[C@@H](O)C=C(C)C)CC[C@@]3(C)[C@H]12 [Compound 8] | 13.8 µM | 5.39 µM | < 8 µM | 4.86 µM | < 8 µM | 11.5 µM | 7.54 µM | < 8 µM | 5.19 µM | < 8 µM | 24.2 µM | 16 to 64 µM | 9.81 µM | – | – | – | – | – | – | – | evaluation of ability to inhibit cell growth activity (IC50) ([1]; SW480 cells, grade of the IC50 of Table 2): ◯; evaluation of ability to inhibit cell growth activity (IC50) ([4]; grade of the IC50 of Table 2): ◯; evaluation of ability to inhibit cell growth activity (IC50) ([8]; MDA-MB-468 cells, grade of the IC50 of Table 2): ◯
2 | CC(=O)O[C@H]1C=C2[C@@H](CC[C@H](O)C2(C)C)[C@]2(C=O)CC[C@]3(C)[C@@H]([C@H](C)C/C=C/C(C)(C)O)CC[C@@]3(C)[C@H]12 [Compound 9] | – | – | – | – | – | – | – | – | – | – | – | – | – | 31.8 µM | 16 to 64 µM | 11.2 µM | 8 to 16 µM | 24.4 µM | 16 to 64 µM | 5.07 µM | evaluation of ability to inhibit cell growth activity (IC50) ([2]; U937 cells, grade of the IC50 of Table 2): ◯; IC50 [4, 26]: < 8 µM; IC50 [5, 27]: 15.6 µM; IC50 [5, 28]: 8 to 16 µM; evaluation of ability to inhibit cell growth activity (IC50) [5]: ◯; IC50 [6, 29]: 18.3 µM; IC50 [6, 30]: 16 to 64 µM; IC50 [7, 31]: 25.9 µM; IC50 [7, 32]: 16 to 64 µM; IC50 [8, 33]: 26.8 µM; IC50 [8, 34]: 16 to 64 µM
3 | CC(=O)O[C@@H](C=C(C)C)C[C@@H](C)[C@H]1CC[C@@]2(C)[C@@H]3[C@@H](O)C=C4[C@@H](CC[C@H](O)C4(C)C)[C@]3(C=O)CC[C@]12C [Compound 10] | – | – | – | – | – | – | – | – | – | – | – | – | – | 17.9 µM | 16 to 64 µM | 5.92 µM | < 8 µM | 9.81 µM | 8 to 16 µM | 19.4 µM | evaluation of ability to inhibit cell growth activity (IC50) ([3]; A549 cells, grade of the IC50 of Table 2): ◯; IC50 [4, 26]: 16 to 64 µM; IC50 [5, 27]: 10.7 µM; IC50 [5, 28]: 8 to 16 µM; evaluation of ability to inhibit cell growth activity (IC50) [5]: ◯; IC50 [6, 29]: 10.7 µM; IC50 [6, 30]: 8 to 16 µM; evaluation of ability to inhibit cell growth activity (IC50) ([6]; MDA-MB-231 cells, grade of the IC50 of Table 2): ◯; IC50 [7, 31]: 19.2 µM; IC50 [7, 32]: 16 to 64 µM; IC50 [8, 33]: 20.3 µM; IC50 [8, 34]: 16 to 64 µM
4 | CC(C)=CC(=O)C[C@@H](C)[C@H]1CC[C@@]2(C)[C@@H]3[C@@H](O)C=C4[C@@H](CC[C@H](O)C4(C)C)[C@]3(C=O)CC[C@]12C [Compound 11] | – | – | – | – | – | – | – | – | – | – | – | – | – | > 256 µM | > 256 µM | 84.2 µM | 64 to 256 µM | > 256 µM | > 256 µM | > 256 µM | IC50 [4, 26]: > 256 µM; IC50 [5, 27]: > 256 µM; IC50 [5, 28]: > 256 µM; IC50 [6, 29]: > 256 µM; IC50 [6, 30]: > 256 µM; IC50 [7, 31]: > 256 µM; IC50 [7, 32]: > 256 µM; IC50 [8, 33]: > 256 µM; IC50 [8, 34]: > 256 µM
5 | CC(C)=C[C@@H](C[C@@H](C)[C@H]1CC[C@@]2(C)[C@@H]3[C@@H](O)C=C4[C@@H](CC[C@H](O)C4(C)C)[C@]3(C=O)CC[C@]12C)O[C@@H]1O[C@H](CO)[C@@H](O)[C@H](O)[C@H]1O [Compound 12] | 98.6 µM | 58.6 µM | 16 to 64 µM | 100 µM | 64 to 256 µM | 70.3 µM | 49 µM | 16 to 64 µM | 41.7 µM | 16 to 64 µM | 124 µM | 64 to 256 µM | 56.5 µM | – | – | – | – | – | – | – | IC50 [1, 35]: 64 to 256 µM; IC50 [4, 15]: 64 to 256 µM; IC50 [8, 36]: 16 to 64 µM
6 | CC(C)=C[C@H](O)C[C@@H](C)[C@H]1CC[C@@]2(C)[C@@H]3[C@@H](O[C@@H]4O[C@H](CO)[C@@H](O)[C@H](O)[C@H]4O)C=C4[C@@H](CC[C@H](O)C4(C)C)[C@]3(C=O)CC[C@]12C [Compound 13] | 67.2 µM | 32.5 µM | 16 to 64 µM | 198 µM | 64 to 256 µM | > 256 µM | 103 µM | 64 to 256 µM | 59.4 µM | 16 to 64 µM | > 256 µM | > 256 µM | 58.3 µM | – | – | – | – | – | – | – | IC50 [1, 35]: 64 to 256 µM; IC50 [4, 15]: > 256 µM; IC50 [8, 36]: 16 to 64 µM
7 | C[C@H](C/C=C/C(C)(C)O)[C@H]1CC[C@@]2(C)[C@@H]3[C@@H](O[C@@H]4O[C@H](CO)[C@@H](O)[C@H](O)[C@H]4O)C=C4[C@@H](CC[C@H](O)C4(C)C)[C@]3(C=O)CC[C@]12C [Compound 14] | 64.2 µM | 19.8 µM | 16 to 64 µM | 171 µM | 64 to 256 µM | > 256 µM | 58.5 µM | 16 to 64 µM | 32.8 µM | 16 to 64 µM | > 256 µM | > 256 µM | 39.3 µM | – | – | – | – | – | – | – | IC50 [1, 35]: 64 to 256 µM; IC50 [4, 15]: > 256 µM; IC50 [8, 36]: 16 to 64 µM
